SMILES strings stand for the structures. Like-named read-outs stand apart in the source and are kept apart here.

One experiment has as its target T1, IRAK1 (Homo sapiens, UniProt P51617).
T1 construct: purchased RBC (Reaction Biology) HotSpot assay
As to the kind of experiment: RBC HotSpot Kinase Assay, IRAK1. Format: biochemical. As to conditions: HotSpot functional assay, isolated kinase enzyme, 33P-ATP. The gist of the method:
(§1)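 Isolated kinases, possibly truncated or lacking regulatory receptor regions, were preincubated with compound for 20 min at room temp in 20 mM Hepes pH 7.5, 10 mM MgCl2, 1 mM EGTA, 2 mM DTT, 1% DMSO. Reactions were started with ^33P-ATP and run 2 h at room temperature; activity was read by P81 filter binding.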

The next experiment deals with T2, IRAK4 (Homo sapiens, UniProt Q9NWZ3).
T2 sequence (Q9NWZ3 1-460): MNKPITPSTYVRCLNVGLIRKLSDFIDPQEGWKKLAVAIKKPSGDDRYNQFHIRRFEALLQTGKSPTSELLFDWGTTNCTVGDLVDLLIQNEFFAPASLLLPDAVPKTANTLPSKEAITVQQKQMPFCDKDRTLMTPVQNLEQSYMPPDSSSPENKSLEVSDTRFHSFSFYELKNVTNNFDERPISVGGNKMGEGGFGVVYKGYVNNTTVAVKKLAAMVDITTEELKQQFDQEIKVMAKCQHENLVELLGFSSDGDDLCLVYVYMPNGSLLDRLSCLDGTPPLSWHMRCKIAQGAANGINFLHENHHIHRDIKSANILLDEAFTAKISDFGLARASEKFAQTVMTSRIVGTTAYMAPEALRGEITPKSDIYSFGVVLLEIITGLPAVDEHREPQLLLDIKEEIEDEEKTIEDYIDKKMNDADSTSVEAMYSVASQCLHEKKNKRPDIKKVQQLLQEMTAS
Description: RBC HotSpot Kinase Assay, IRAK4. Type of experiment: biochemical. Also on record: purchased RBC (Reaction Biology) HotSpot assay. To be noted: HotSpot functional assay, isolated kinase enzyme, 33P-ATP. The gist of the method:
as §1

The target of a further experiment is T3, FLT3 (Homo sapiens, UniProt P36888).
T3 sequence (P36888 27-993): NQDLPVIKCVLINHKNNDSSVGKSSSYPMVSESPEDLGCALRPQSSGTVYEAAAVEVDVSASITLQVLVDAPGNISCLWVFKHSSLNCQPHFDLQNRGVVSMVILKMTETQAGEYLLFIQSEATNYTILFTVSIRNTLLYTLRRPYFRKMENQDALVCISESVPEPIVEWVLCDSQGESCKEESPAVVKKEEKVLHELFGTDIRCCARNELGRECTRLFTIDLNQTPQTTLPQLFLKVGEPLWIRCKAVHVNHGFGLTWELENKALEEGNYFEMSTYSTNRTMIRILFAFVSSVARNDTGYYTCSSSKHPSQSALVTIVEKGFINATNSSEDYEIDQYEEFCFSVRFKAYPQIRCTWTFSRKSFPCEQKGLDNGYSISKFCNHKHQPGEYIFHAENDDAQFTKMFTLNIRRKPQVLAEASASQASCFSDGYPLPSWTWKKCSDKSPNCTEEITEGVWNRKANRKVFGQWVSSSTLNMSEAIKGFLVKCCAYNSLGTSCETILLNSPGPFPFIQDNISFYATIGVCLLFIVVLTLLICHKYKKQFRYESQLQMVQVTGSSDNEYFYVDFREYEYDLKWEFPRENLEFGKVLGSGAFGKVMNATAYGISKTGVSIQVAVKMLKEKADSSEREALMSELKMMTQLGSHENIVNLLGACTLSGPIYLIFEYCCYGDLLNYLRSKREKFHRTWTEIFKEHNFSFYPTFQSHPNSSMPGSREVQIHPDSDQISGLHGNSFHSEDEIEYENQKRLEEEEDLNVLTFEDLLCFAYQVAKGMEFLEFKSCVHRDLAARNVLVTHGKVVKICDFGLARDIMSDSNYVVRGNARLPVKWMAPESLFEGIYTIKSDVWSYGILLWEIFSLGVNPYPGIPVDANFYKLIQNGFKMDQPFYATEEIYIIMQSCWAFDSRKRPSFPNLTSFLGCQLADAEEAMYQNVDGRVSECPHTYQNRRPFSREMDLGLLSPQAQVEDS
As to the kind of experiment: RBC HotSpot Kinase Assay, FLT3. Format: biochemical. Also on record: purchased RBC (Reaction Biology) HotSpot assay. To be noted: HotSpot functional assay, isolated kinase enzyme, 33P-ATP. The gist of the method:
as §1

For a further experiment, the system named is NF-κB. Description: NF-kB assay in THP-1-Blue NF-κB cells (SEAP reporter). Format: cell-based. Here is the method:
THP-1-Blue NF-κB cells (InvivoGen) carrying a stable integrated NF-κB-inducible secreted embryonic alkaline phosphatase (SEAP) reporter construct were plated at a concentration of 1×10^5 cells per well. The cells were stimulated with Pam3CSK4 (1 ng/mL) or hIL1B (Ing/mL). After 10-20 minutes, the cells were then treated with vehicle (DMSO) or serial dilutions of the test compounds (10 doses tested for each test compound, with a 1:10 dilution series starting at 1 μM or 3 μM) with a final volume of 200 μL for 24 hours at 37° C. After 24 hours, the cells were centrifuged and 20 IL supernatant was incubated with 180 μL QUANTI-Blue reagent at 37° C. for 30-60 minutes. The levels of NF-κB-induced was measured in a microplate reader at 620 nm.

The test system of the next experiment is MOLM14 D835Y cells. As to the kind of experiment: MOLM14 D835Y cell viability assay (Cell Titer Glo). Type of experiment: cell-based. The procedure:
The cell line has activated FLT3 receptors which carry additional resistance mutations in the kinase domain (D835Y).
MOLM14 D835Y cells were grown in RPMI-1640 media supplemented with 20% fetal bovine serum (FBS). […] After cell addition, 23 nL of test compound were transferred into individual wells (22 doses tested for each test compound, with a 1:2 dilution series starting at 10 μM) via a 1536 pin-tool. Bortezomib (final concentration 2.3 μM) was used as a positive control for cell cytotoxicity.
Background: ATP-based viability assays read luminescence as a measure of living cells.

The mark [1] stands for this setting: THP-1-Blue NF-κB cells stimulated with Pam3CSK4, 24 hours, read-out: NF-κB Pam3SCK4 IC50.
Where [2] appears, read: THP-1-Blue NF-κB cells stimulated with hIL1B, 24 hours, read-out: NF-κB IL1B IC50.

T1 sequence (P51617 whole entry): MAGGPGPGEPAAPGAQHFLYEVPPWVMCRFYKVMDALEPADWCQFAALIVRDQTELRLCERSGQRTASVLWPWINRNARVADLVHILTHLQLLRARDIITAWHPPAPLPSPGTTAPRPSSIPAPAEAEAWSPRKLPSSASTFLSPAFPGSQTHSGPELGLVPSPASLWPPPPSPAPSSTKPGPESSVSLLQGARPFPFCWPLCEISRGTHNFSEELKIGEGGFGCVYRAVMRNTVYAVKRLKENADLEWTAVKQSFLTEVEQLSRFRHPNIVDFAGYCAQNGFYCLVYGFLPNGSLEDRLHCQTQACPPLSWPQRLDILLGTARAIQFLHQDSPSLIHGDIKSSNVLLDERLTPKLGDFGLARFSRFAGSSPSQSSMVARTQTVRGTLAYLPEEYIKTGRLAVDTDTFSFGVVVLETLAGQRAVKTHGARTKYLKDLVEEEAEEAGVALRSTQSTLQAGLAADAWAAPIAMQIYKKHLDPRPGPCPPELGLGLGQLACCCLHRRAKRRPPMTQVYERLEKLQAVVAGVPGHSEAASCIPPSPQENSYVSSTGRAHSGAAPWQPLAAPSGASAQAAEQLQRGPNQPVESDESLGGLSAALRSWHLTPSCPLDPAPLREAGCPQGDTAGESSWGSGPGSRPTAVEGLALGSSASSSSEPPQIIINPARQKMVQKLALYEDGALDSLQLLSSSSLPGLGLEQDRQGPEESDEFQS

As to `COc1cc2ncc(-c3ccc(C#N)c(N[C@H]4CNCC[C@@H]4F)n3)n2nc1C1CC1` [Compound 29a, 6-(6-cyclopropyl-7-methoxyimidazo[1,2-b]pyridazin-3-yl)-2-(((3S,4S)-4-fluoropiperidin-3-yl)amino)nicotinonitrile], the half-inhibitory concentration (IC50) (in general, the midpoint of a concentration-inhibition curve) at IRAK1 is 10 nM; against IRAK4 it was under 0.5 nM; at FLT3, under 0.5 nM; with NF-κB (setting [1]), 66 nM; with NF-κB (setting [2]), 70 nM.

As to `COc1cc2ncc(-c3nc(N[C@@H]4CCCNC4)c(F)cc3F)n2nc1C12CC(C1)C2` [Compound 65a, (R)-6-(6-(bicyclo[1.1.1]pentan-1-yl)-7-methoxyimidazo[1,2-b]pyridazin-3-yl)-3,5-difluoro-N-(piperidin-3-yl)pyridin-2-amine], the IC50 was 18 nM at IRAK1; 9 nM against IRAK4; under 0.5 nM against FLT3; 312 nM in the experiment on NF-κB (setting [1]); 410 nM in the experiment on NF-κB (setting [2]).

On to `COc1cc2ncc(-c3nc(N[C@@H]4CCCNC4)c(F)cc3F)n2nc1C1CC(C)(C)C1` [Compound 7a, (R)-6-(6-(3,3-dimethylcyclobutyl)-7-methoxyimidazo[1,2-b]pyridazin-3-yl)-3,5-difluoro-N-(piperidin-3-yl)pyridin-2-amine], for which the IC50 was 22 nM against IRAK1; 13 nM against IRAK4; under 0.5 nM against FLT3; 2560 nM in the experiment on NF-κB (setting [1]); 2560 nM with NF-κB (setting [2]).

With `COc1cc2ncc(-c3ccc(F)c(N[C@H]4CNCC[C@@H]4F)n3)n2nc1C1CC1` [Compound 48a, 6-(6-cyclopropyl-7-methoxyimidazo[1,2-b]pyridazin-3-yl)-3-fluoro-N-((3S,4S)-4-fluoropiperidin-3-yl)pyridin-2-amine], the IC50 against IRAK1 is 169 nM; at IRAK4, 1 nM; against FLT3 it was under 0.5 nM; in the experiment with MOLM14 D835Y cells (Homo sapiens, MOLM-14, 48 h), 26 nM.

For `COc1cc2ncc(-c3nc(N[C@H]4CNC[C@@H]4F)ccc3F)n2nc1C(C)(C)O` [Compound 2a, 2-(3-(3-fluoro-6-(((3S,4S)-4-fluoropyrrolidin-3-yl)amino)pyridin-2-yl)-7-methoxyimidazo[1,2-b]pyridazin-6-yl)propan-2-ol], the IC50 came out at 610 nM on IRAK1; 24 nM at IRAK4; 0.8 nM on FLT3; 129 nM in the experiment on MOLM14 D835Y cells (Homo sapiens, MOLM-14, 48 h).

`COc1cc2ncc(-c3nc(N[C@H]4CNCC[C@@H]4F)c(F)cc3F)n2nc1C(C)(O)C(F)(F)F` (single isomer, unassigned) [Compound 76a]: the IC50 against IRAK1 was 580 nM; against IRAK4 it was 78 nM; against FLT3, under 0.5 nM; in the experiment with MOLM14 D835Y cells (48 hours), 81 nM.

Consider `COc1cc2ncc(-c3ccc(F)c(N[C@H]4CNC[C@@H]4F)n3)n2nc1C(C)(C)O` [Compound 5a, 2-(3-(5-fluoro-6-(((3S,4S)-4-fluoropyrrolidin-3-yl)amino)pyridin-2-yl)-7-methoxyimidazo[1,2-b]pyridazin-6-yl)propan-2-ol], for which the IC50 against IRAK1 stood at 2670 nM; against IRAK4, 70 nM; against FLT3, 7 nM; in the experiment on MOLM14 D835Y cells (Homo sapiens, MOLM-14, 48 h), 408 nM.

With `COc1cc2ncc(-c3ccc(F)c(N[C@H]4CNCC[C@@H]4F)n3)n2nc1C(C)(C)O` [Compound 1a, 2-(3-(5-fluoro-6-(((3S,4S)-4-fluoropiperidin-3-yl)amino)pyridin-2-yl)-7-methoxyimidazo[1,2-b]pyridazin-6-yl)propan-2-ol], the half-maximal inhibitory concentration (IC50) at IRAK1 was determined as 2340 nM; on IRAK4 it was 158 nM; against FLT3, 3 nM; with MOLM14 D835Y cells (Homo sapiens, MOLM-14, 48 h) it was 182 nM.

Turning to `COc1cc2ncc(-c3nc(N[C@H]4CNCC[C@@H]4F)ccc3F)n2nc1C(C)(C)O` [Compound 4a, 2-(3-(3-fluoro-6-(((3S,4S)-4-fluoropiperidin-3-yl)amino)pyridin-2-yl)-7-methoxyimidazo[1,2-b]pyridazin-6-yl)propan-2-ol], the concentration for half-maximal inhibition (IC50) against IRAK1 was 221 nM; at IRAK4 it was 27 nM; against FLT3, under 0.5 nM; in the experiment with MOLM14 D835Y cells (Homo sapiens, MOLM-14, 48 h) it was 29 nM.

`COc1cc2ncc(-c3ccc(F)c(N[C@@H]4CCCNC4)n3)n2nc1C1CC1` [Compound 49a, (R)-6-(6-cyclopropyl-7-methoxyimidazo[1,2-b]pyridazin-3-yl)-3-fluoro-N-(piperidin-3-yl)pyridin-2-amine]: the IC50 on IRAK1 was 449 nM; on IRAK4 it was 3 nM; at FLT3 it was under 0.5 nM; with MOLM14 D835Y cells (Homo sapiens, MOLM-14, 48 h), 51 nM.

For `COc1cc2ncc(-c3ccc(C)c(N[C@H]4CNC[C@@H]4F)n3)n2nc1C1CC1` [Compound 42a, 6-(6-cyclopropyl-7-methoxyimidazo[1,2-b]pyridazin-3-yl)-N-((3S,4S)-4-fluoropyrrolidin-3-yl)-3-methylpyridin-2-amine], the IC50 on IRAK1 is over 10000 nM; against IRAK4, 8430 nM; against FLT3, 135 nM; with MOLM14 D835Y cells (Homo sapiens, MOLM-14, 48 h), 7250 nM.

As for `Fc1cc(F)c(-c2cnc3cc(OCC(F)F)cnn23)nc1N[C@@H]1CCCNC1` [Compound 83a, (R)-6-(7-(2,2-difluoroethoxy)imidazo[1,2-b]pyridazin-3-yl)-3,5-difluoro-N-(piperidin-3-yl)pyridin-2-amine], the IC50 against IRAK1 was determined as 1750 nM; against IRAK4, 53 nM; at FLT3, 0.5 nM; in the experiment with MOLM14 D835Y cells (Homo sapiens, MOLM-14, 48 h) it was 91 nM.

For the compound `COc1cc2ncc(-c3nc(N[C@@H]4CCCNC4)ccc3C)n2nc1C1CC1` [Compound 40a, (R)-6-(6-cyclopropyl-7-methoxyimidazo[1,2-b]pyridazin-3-yl)-5-methyl-N-(piperidin-3-yl)pyridin-2-amine], the half-maximal inhibitory concentration (IC50) is over 10000 nM against IRAK1; 18 nM on IRAK4; under 0.5 nM on FLT3; 129 nM in the experiment with MOLM14 D835Y cells (Homo sapiens, MOLM-14, 48 h).

`COc1cc2ncc(-c3ccc(C)c(N[C@@H]4CCCNC4)n3)n2nc1C1CC1` [Compound 41a, (R)-6-(6-cyclopropyl-7-methoxyimidazo[1,2-b]pyridazin-3-yl)-3-methyl-N-(piperidin-3-yl)pyridin-2-amine]: the IC50 on IRAK1 is over 10000 nM; on IRAK4 it was over 10000 nM; on FLT3, 105 nM; in the experiment on MOLM14 D835Y cells (Homo sapiens, MOLM-14, 48 h), 1620 nM.

For the origin of these results see US20250368648A1, “MULTI-CYCLIC IRAK AND FLT3 INHIBITING COMPOUNDS AND USES THEREOF” (CHILDREN'S HOSPITAL MEDICAL CENTER, priority 2022, published 2025).
